# Measurements published in US7442841B2, “Extraction process” (Invista North America S.A R.L., priority 2006, dated 2008).
# Columns and labels:
# [1] = Liquid-liquid separation of cyclohexanol from cyclohexane, distribution coefficient by gas chromatography; format: physicochemical; details: for Cyclohexanol D (distribution coefficient): concentration in extracting solvent phase divided by concentration in cyclohexane phase, 1 mL stock solution + 1 mL extracting solvent; for Cyclohexanol Log D: extracting solvent/cyclohexane, equal volumes
# Experimental: The distribution coefficient for the separation was then calculated.
# [2] = Liquid-liquid separation of cyclohexanone from cyclohexane, distribution coefficient by gas chromatography; details: for Cyclohexanone D (distribution coefficient): concentration in extracting solvent phase divided by concentration in cyclohexane phase, 1 mL stock solution + 1 mL extracting solvent; for Cyclohexanone Log D: extracting solvent/cyclohexane, equal volumes
# Experimental: As used herein, the term “distribution coefficient” referring to the liquid-liquid separation refers to the concentration of the separable component in the ionic liquid-based phase divided by the concentration of the separable component in the non-polar solvent-based phase. These concentrations are measured subsequent to settling, i.e. when the separation mixture has reached equilibrium subsequent to the vigorous shaking.
# The general method used for all the examples was as follows.
# Stock solution; 250 mg cyclohexanol (Molecular Weight=100 gmol^−1) and 250 mg cyclohexanone (Molecular Weight=98 gmol^−1) in 10 g of cyclohexane (Molecular Weight=84 gmol^−1).
# Method: add 1 mL (0.8 g) of stock solution (20 mg each of cyclohexanol and cyclohexanone) to 1 mL of ionic liquid and shake vigorously. After settling time and complete phase separation, 3 drops of the top layer were added to a vial and filled with ethylene chloride. Gas chromatography analysis was used to provide the number of moles of the separable component in each liquid phase. The distribution coefficient for the separation was then calculated.
# [3] = Extraction of 2-octanone from octane, IL/Octane distribution coefficient; format: physicochemical; details: concentration of substrate in IL divided by concentration in octane
# Experimental: (§1) A corresponding set of experiments was conducted to study the extraction of octanol and 2-octanone from octane using ionic liquids. The results are presented in Table 2 below, in which the IL/Octane distribution coefficient is calculated as the concentration of substrate in IL divided by the concentration of substrate in octane.
# [4] = Extraction of octanol from octane, IL/Octane distribution coefficient; format: physicochemical; details: concentration of substrate in IL divided by concentration in octane
# Experimental: as §1
SMILES,Cyclohexanol D (distribution coefficient) [1],Cyclohexanol Log D [1],Cyclohexanone D (distribution coefficient) [2],Cyclohexanone Log D [2],IL/Octane distribution coefficient 2-Octanone [3],IL/Octane distribution coefficient Octanol [4]
"O [Example 1, H2O, reference compound]",0.86,−0.07,0.34,−0.47,–,–
CC[n+]1ccccc1 [Example 2],1.60,0.20,3.40,–,–,–
CCCC[n+]1ccn(C)c1 [Example 3],1.77,–,2.11,–,–,–
CCCCn1cc[n+](C)c1 [Example 4],2.32,–,1.51,–,–,–
"C[S+](C)[O-] [Example 14, dimethyl sulfoxide, reference compound]",24.79,1.39,2.80,0.45,–,–
Br.CCCC[n+]1ccn(C)c1 [Example 17],–,–,–,–,0.16,1.44
"C[S+](C)[O-] [Example 19, dimethyl sulfoxide, reference compound]",–,–,–,–,0.89,7.67

# The remaining lines, values ahead:
Cyclohexanol D (distribution coefficient) [1],Cyclohexanol Log D [1],Cyclohexanone D (distribution coefficient) [2],Cyclohexanone Log D [2],IL/Octane distribution coefficient 2-Octanone [3],IL/Octane distribution coefficient Octanol [4],SMILES
2.91,0.46,3.00,0.478,–,–,C[N+](C)(C)CCO [Example 5]
4.10,–,4.38,–,–,–,CCCCn1cc[n+](C)c1 [Example 6]
5.12,0.71,5.00,–,–,–,CCCC[N+]1(C)CCCC1 [Example 7]
5.96,0.78,0.21,–,–,–,C[N+]1(CCCCS(=O)(=O)O)CCCC1 [Example 8]
–,–,–,–,2.08,1.06,CCCCn1cc[n+](C)c1 [Example 15]
